This passage reports IC50 results from patent publication US9808445B2, “Factor IXa inhibitors” (Merck Sharp & Dohme Corp., priority 2014, dated 2017).

Each structure is given as a SMILES string. Where a name gives a salt, the structure may show the parent alone.

This experiment has as its target human factor IXa (Homo sapiens (Human), UniProt P00740). The experiment in a line: Determination of inhibitory activity against factor IXa (fluorogenic substrate SPECTROFLUOR FIXa). It is filed as biochemical. The note with it: Factor IXa enzyme assay human. Here is the method: Inhibitory activity against factor IXa was tested using the substrate SPECTROFLUOR FIXa (american diagnostica inc.; 500 West Avenue, Stamford, Conn. 06902 USA; Pr. No. 299F) and human factor IXa (american diagnostica inc.; Pr. No. 449b). Test substances were dissolved in buffer A (50 mM α,α,α-tris (hydroxymethyl) methylamine (Tris), 100 mM NaCl, 5 mM CaCl2, 15% (v/v) ethylene glycol, pH 8.0) were mixed with factor IXa (0.1 μg/ml final concentration). The enzyme reaction was started by addition of SPECTROFLUOR FIXa (100 μM final concentration). After incubation for 60 minutes at room temperature, the reaction was stopped by the addition of 20% (v/v) acetic acid solution, and then the fluorescence value was measured (Excitation Wavelength: 355 nm, Emission Wavelength; 460 nm) in a microtiter plate reader (ARVO 1420 Multilabel Counter; PerkinElmer).
The IC50 was calculated from a dilution series of the test substance with the aid of the software, Symyx Assay Explorer (Symyx Technologies, Inc.).

Chain of human factor IXa (P00740 227-461): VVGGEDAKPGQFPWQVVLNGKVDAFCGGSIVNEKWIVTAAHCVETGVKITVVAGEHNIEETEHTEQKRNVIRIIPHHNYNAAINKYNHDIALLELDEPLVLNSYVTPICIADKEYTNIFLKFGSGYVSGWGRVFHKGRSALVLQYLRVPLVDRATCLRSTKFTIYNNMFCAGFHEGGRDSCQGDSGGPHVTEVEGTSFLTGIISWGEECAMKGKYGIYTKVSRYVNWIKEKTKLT
Chain of human factor IXa (P00740 47-191 partner): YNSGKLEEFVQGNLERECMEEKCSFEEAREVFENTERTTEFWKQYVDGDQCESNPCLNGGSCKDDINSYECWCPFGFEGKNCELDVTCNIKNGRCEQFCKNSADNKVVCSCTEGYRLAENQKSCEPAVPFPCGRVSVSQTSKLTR

Regarding `Cc1cc2c(N)noc2c(N2C[C@@H]3CC[C@H]2[C@@H]3NC(=O)c2ccc(-c3cnc(C#N)nc3)cc2Cl)n1` (relative stereo) [Example 17, N-((1S*,4S*,7R*)-2-(3-Amino-5-methylisoxazolo[5,4-c]pyridin-7-yl)-2-azabicyclo[2.2.1]heptan-7-yl)-2-chloro-4-(2-cyanopyrimidin-5-yl)benzamide], the IC50 (usually the concentration at which inhibition is half-maximal) is at most 100 nM. Regarding `Cn1cc(-c2ccc(C(=O)N[C@@H]3[C@H]4CC[C@@H]3N(c3ncc(Cl)c5c(N)noc35)C4)c(Cl)c2)ccc1=O` (relative stereo) [Example 18, N-((1S*,4S*,7R*)-2-(3-Amino-4-chloroisoxazolo[5,4-c]pyridin-7-yl)-2-azabicyclo[2.2.1]heptan-7-yl)-2-chloro-4-(1-methyl-6-oxo-1,6-dihydropyridin-3-yl)benzamide], the half-inhibitory concentration (IC50) was at most 100 nM. As for `Cc1cc(N2C[C@@H]3CC[C@H]2[C@@H]3NC(=O)c2c(Cl)cc(-n3cnc(C)n3)cc2Cl)c2onc(N)c2c1` (relative stereo) [Example 3, N-((1S*,4S*,7R*)-2-(3-Amino-5-methylbenzo[d]isoxazol-7-yl)-2-azabicyclo[2.2.1]heptan-7-yl)-2,6-dichloro-4-(3-methyl-1H-1,2,4-triazol-1-yl)benzamide], the figure is at most 100 nM; as for `Cc1cc2c(N)noc2c(N2C[C@@H]3CC[C@H]2[C@@H]3NC(=O)c2ccc(-c3cnc(=O)n(C)c3)cc2Cl)n1` (relative stereo) [Example 27, N-((1S*,4S*,7R*)-2-(3-Amino-5-methylisoxazolo[5,4-c]pyridin-7-yl)-2-azabicyclo[2.2.1]heptan-7-yl)-2-chloro-4-(1-methyl-2-oxo-1,2-dihydropyrimidin-5-yl)benzamide TFA salt], at most 100 nM; as for `Nc1noc2c(N3C[C@@H]4CC[C@H]3[C@@H]4NC(=O)c3ccc(-c4ccc(=O)n(CCO)c4)cc3Cl)ncc(Cl)c12` (relative stereo) [Example 23, N-((1S*,4S*,7R*)-2-(3-Amino-4-chloroisoxazolo[5,4-c]pyridin-7-yl)-2-azabicyclo[2.2.1]heptan-7-yl)-2-chloro-4-(1-(2-hydroxyethyl)-6-oxo-1,6-dihydropyridin-3-yl)benzamide], at most 100 nM. As for `Nc1noc2c(N3C[C@@H]4CC[C@H]3[C@@H]4NC(=O)c3ccc(-c4cncnc4)cc3Cl)ncc(Cl)c12` (relative stereo) [Example 9, N-((1S*,4S*,7R*)-2-(3-Amino-4-chloroisoxazolo[5,4-c]pyridin-7-yl)-2-azabicyclo[2.2.1]heptan-7-yl)-2-chloro-4-(pyrimidin-5-yl)benzamide], the figure is at most 100 nM. `Cc1ncn(-c2cnc(C(=O)N[C@@H]3[C@H]4CC[C@@H]3N(c3ncc(Cl)c5c(N)noc35)C4)c(Cl)c2)n1` (single isomer, unassigned) [Example 29, N-((1S*,4S*,7R*)-2-(3-Amino-4-chloroisoxazolo[5,4-c]pyridin-7-yl)-2-azabicyclo[2.2.1]heptan-7-yl)-3-chloro-5-(3-methyl-1H-1,2,4-triazol-1-yl)picolinamide]: the half-maximal inhibitory concentration (IC50) was at most 100 nM. The value for `Nc1noc2c(N3C[C@@H]4CC[C@H]3[C@@H]4NC(=O)c3ccc(-n4cnc5ccccc54)cc3Cl)ncc(Cl)c12` (relative stereo) [Example 21, N-((1S*,4S*,7R*)-2-(3-Amino-4-chloroisoxazolo[5,4-c]pyridin-7-yl)-2-azabicyclo[2.2.1]heptan-7-yl)-4-(1H-benzo[d]imidazol-1-yl)-2-chlorobenzamide] was at most 100 nM; that for `Nc1noc2c(N3CC4CCC3C4NC(=O)c3ccc(-n4cncn4)cc3Cl)ncc(Cl)c12` (single isomer, unassigned) [Example 8.1, N-((1S*,4S*,7R*)-2-(3-Amino-4-chloroisoxazolo[5,4-c]pyridin-7-yl)-2-azabicyclo[2.2.1]heptan-7-yl)-2-chloro-4-(1H-1,2,4-triazol-1-yl)benzamide] was at most 100 nM. The value for `COc1ncc(-c2ccc(C(=O)N[C@@H]3[C@H]4CC[C@@H]3N(c3ncc(Cl)c5c(N)noc35)C4)c(Cl)c2)cn1` (relative stereo) [Example 10, N-((1S*,4S*,7R*)-2-(3-Amino-4-chloroisoxazolo[5,4-c]pyridin-7-yl)-2-azabicyclo[2.2.1]heptan-7-yl)-2-chloro-4-(2-methoxypyrimidin-5-yl)benzamide] was at most 100 nM.
